From US10955409B2, “Method for the identification of sensory neuron subtypes in ex vivo preparations” (AnaBios Corporation, priority 2017, dated 2021)

Tested on: Aδ- and C-type neurons (human DRG neurons)
Experiment: Electric field stimulation (EFS) live cell calcium imaging of human DRG neurons
Format: cell-based
Settings: high voltage 15V/cm supra-threshold stimulation
Protocol: DRGs from the first thoracic vertebra (T1) through the first sacral vertebra (S1) were used in the present study. Human DRG neurons where isolated from organ donors for which full legal and ethical consent had been obtained. The DRGs were stripped of connective tissue and enzymatically digested at 37° C. for 2 h using AnaBios' proprietary enzyme mixture. Samples were then centrifuged for 2 min at 200×g, supernatant was gently removed, and tissue was washed 4 times, followed by resuspension in DMEM/F12 (Lonza) containing 1% horse serum (Thermo Fisher Scientific). Ganglia were mechanically dissociated by gentle trituration through the fire-polished tip of a sterile glass Pasteur pipette. […] Cells were maintained in culture at 37° C. with 5% CO2 in DMEM/F12 supplemented with 10% horse serum (Thermo Fisher Scientific), 2 mM glutamine, 25 ng/mL hNGF (Cell Signaling Technology, Danvers, Mass.), 25 ng/mL GDNF (Peprotech), and penicillin/streptomycin (Thermo Fisher Scientific). Half of the culture media was replaced with fresh media every 3 days.
Cells were loaded with 3 M Fluo-8-AM (AAT Bioquest) containing 0.1% Pluronic F-127 (Sigma) for 20 min. at room temperature. Extracellular solution contained in (mM): 145 NaCl, 3 KCl, 2 CaCl2), 1 MgCl2, 10 HEPES, 10 glucose adjusted to pH 7.4 with NaOH. […]

`CCN(CC)CC(=O)Nc1c(C)cccc1C` [lidocaine] was tested, and the “sensitivity of the maximal response to EFS to lidocaine” value was “exhibited sensitivity”.
